Test results taken from patent publication US20150335610A1, “PDK4 INHIBITOR AND USE THEREOF” (priority 2012, published 2015).

How the values were obtained:
PDK4 = PDK4 (Homo sapiens, UniProt Q16654); assay: PDK4-inhibitory activity by off-chip mobility shift assay (phosphorylation of PDH E1 subunit); assay type: biochemical; details: for IC50: phosphorylation of E1 subunit of PDH, 100 μM ATP, human recombinant PDK
Method: The PDK2 and PDK4-inhibitory activities were determined by measuring the phosphorylation of the E1 subunit of PDH in the presence of 100 μM ATP.
1) 5 μL of 4-fold concentrated solutions of test substances, 5 μL of 4-fold concentrated solutions of substrates (recombinant human PDH)/ATP/metal, and 10 μL of 2-fold concentrated solutions of human recombinant PDK were prepared with an assay buffer (20 mM HEPES, 0.01% Triton X-100, 2 mM DTT, pH 7.5) and then were mixed in the wells of a polypropylene 384-well plate, followed by reactions for five hours at room temperature.
2) Reactions were terminated by adding 60 μL of Termination Buffer (QuickScout Screening Assist MSA; Carna Biosciences, Inc.).
3) Peptide substrates and phosphorylated peptides in the reaction solutions were separated by LabChip3000 system (Caliper Life Science) and quantified (gel shift assay). The phosphorylation activity was assessed by product ratios (P/(P+S)) calculated from the peptide substrate peak height (S) and the phosphorylated peptide peak height (P).
4) The inhibitory percentage was calculated as follows.

[1] = system: pyruvate dehydrogenase (PDH); assay type: in vivo, mouse; details: KIS7 2.8 mg/kg/day, DCA 56 mg/kg/day i.p., FIG. 10
normal cells = assay: Anchorage-independent growth of normal cells; assay type: cell-based; details: even at the order of several tens of μM
HeLaS3 cells = assay: Soft agar colony formation assay of cancer cells HeLaS3; assay type: cell-based; details: at 3 μM; eight days of culture; FIG. 14
Method: A conventional method was employed for a soft agar colony formation assay of cancer cells HeLaS3 (C. Oneyama et. al. Genes to Cells 2008; 13: 1 to 129). The HeLaS3 cells (4×10^4) were mixed with 3 ml of soft agar medium (Dulbecco modified Eagle's medium, 10% calf serum, 0.36% agar) and poured into a well of 6 cm-cell culture plate, which was added 5 ml of the base agar medium (Dulbecco modified Eagle's medium, 10% calf serum, 0.7% agar) in advance. After eight days of culture in a carbon dioxide gas incubator at 37° C., colonies were stained with MTT (3-(4,5-dimethylthiazol-2-yl)-2,5-diphenyltetrazolium bromide).

cells cancerated by Ras = assay: Anchorage-independent sphere growth of cells cancerated by Ras; assay type: cell-based; details: at μM to 10 μM order
[2] = background art, Non-Patent Literature 4; cited from earlier work

Sequence of PDK4 (Q16654 whole entry): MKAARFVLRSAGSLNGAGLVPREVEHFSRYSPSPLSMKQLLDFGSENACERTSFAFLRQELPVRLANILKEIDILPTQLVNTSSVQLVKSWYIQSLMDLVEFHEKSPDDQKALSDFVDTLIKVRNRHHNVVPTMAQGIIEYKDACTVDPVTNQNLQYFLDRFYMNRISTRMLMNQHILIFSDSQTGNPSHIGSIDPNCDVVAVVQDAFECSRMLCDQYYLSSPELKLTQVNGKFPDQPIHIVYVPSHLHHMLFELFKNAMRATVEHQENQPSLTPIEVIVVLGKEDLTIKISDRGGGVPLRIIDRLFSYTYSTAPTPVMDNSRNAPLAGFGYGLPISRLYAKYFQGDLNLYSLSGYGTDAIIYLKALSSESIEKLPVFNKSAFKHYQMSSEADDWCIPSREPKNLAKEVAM

## Cc1cc2c(C(C)C)c(O)c(O)c(/C=N/c3ccccc3C(=O)O)c2c(O)c1-c1c(C)cc2c(C(C)C)c(O)c(O)c(/C=N/c3ccccc3C(=O)O)c2c1O [KIS28]
PDK4
  IC50: 13.2 µM

## Cc1cc2c(C(C)C)c(O)c(O)c(C=O)c2c(O)c1-c1c(C)cc2c(C(C)C)c(O)c(O)c(C=O)c2c1O [KIS7, gossypol]
[1]
  PDH enzyme activity in liver tissue: equivalent PDH activities to non-infected mice
Normal cells
  anchorage-independent growth of normal cells: did not inhibit
HeLaS3 cells
  colony formation of HeLaS3 in soft agar: inhibited the colony formation
PDK4; FIG. 4
  dose inhibiting PDK4 compared with DCA and Radicicol: far lower dose as compared with DCA and Radicicol
PDK4; comparison with known PDK inhibitory substances, FIG. 4
  effect on PDK4 activity (activation or inhibition): inhibited PDK4
PDK4
  IC50: 4 µM
Cells cancerated by Ras
  anchorage-independent sphere growth of cells cancerated by Ras: suppressed the anchorage-independent sphere growth

## CC1(C)CCC2=C(O1)c1ccccc1C(=O)C2=O [KIS24, β-lapachone]
HeLaS3 cells
  colony formation of HeLaS3 in soft agar: inhibited the colony formation
PDK4
  IC50: 3 µM
Cells cancerated by Ras
  anchorage-independent sphere growth of cells cancerated by Ras: suppressed the anchorage-independent sphere growth

## C[C@H]1COC2=C1C(=O)C(=O)c1c2ccc2c1CCCC2(C)C [KIS37, cryptotanshinone]
Normal cells
  anchorage-independent growth of normal cells: did not inhibit
HeLaS3 cells
  colony formation of HeLaS3 in soft agar: inhibited the colony formation
PDK4
  IC50: 11 µM
Cells cancerated by Ras
  anchorage-independent sphere growth of cells cancerated by Ras: suppressed the anchorage-independent sphere growth

## Cc1cccc2c3c(ccc12)C1=C(C(=O)C3=O)[C@@H](C)CO1 [KIS116, dihydrotanshinone I]
Normal cells
  anchorage-independent growth of normal cells: did not inhibit
PDK4
  IC50: < 4 µM
Cells cancerated by Ras
  anchorage-independent sphere growth of cells cancerated by Ras: suppressed the anchorage-independent sphere growth

## O=C(O)C(Cl)Cl [DCA, dichloroacetic acid, reference compound]
[1]
  PDH enzyme activity in liver tissue: equivalent PDH activities to non-infected mice
[2]
  side effects: severe side effects such as neurotoxicity
